According to ChEMBL document CHEMBL4665775, “Half-life extension of peptidic APJ agonists by N-terminal lipid conjugation” (Bioorg Med Chem Lett, 2020):

Experiments:
[1] = target: T1, Apelin receptor (Rattus norvegicus, UniProt Q9JHG3); assay: Agonist activity at rat APJ receptor stably expressed in CHO cell membranes in presence of [35S]GTPgammaS by scintillation proximity assay; type: functional
T1 sequence (Q9JHG3 whole entry): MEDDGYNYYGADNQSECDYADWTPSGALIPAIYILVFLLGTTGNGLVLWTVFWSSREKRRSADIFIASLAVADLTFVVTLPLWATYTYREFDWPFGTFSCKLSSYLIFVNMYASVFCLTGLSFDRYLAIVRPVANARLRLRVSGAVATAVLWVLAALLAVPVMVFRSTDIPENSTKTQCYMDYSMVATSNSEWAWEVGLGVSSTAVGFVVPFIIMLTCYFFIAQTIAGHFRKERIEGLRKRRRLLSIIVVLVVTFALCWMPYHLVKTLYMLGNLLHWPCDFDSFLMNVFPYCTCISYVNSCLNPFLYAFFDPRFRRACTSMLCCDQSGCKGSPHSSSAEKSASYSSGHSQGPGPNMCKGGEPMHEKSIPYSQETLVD

[2] = Stability in rat Kidney S9 fraction assessed as compound remaining at 4 hrs; type: ADME, subcellular; conditions: read-out: Stabilty
[3] = Stability in rat plasma assessed as compound remaining at 4 hrs; type: ADME, cell-free; conditions: read-out: Stabilty
[4] = Plasma protein binding in rat assessed as unbound fraction by LC-MS/MS analysis; type: ADME, cell-free

| Compound | EC50 [1] [nM] | remaining at 4 h [2] [%] | remaining at 4 h [3] [%] | fraction unbound [4] |
| --- | --- | --- | --- | --- |
| CC(C)C[C@@H](C(=O)N[C@@H](CO)C(=O)N[C@@H](Cc1c[nH]cn1)C(=O)N[C@@H](CCCCN)C(=O)NCC(=O)N1[C@H](C(=O)N[C@@H](Cc2ccc(I)cc2)C(=O)N2CCC[C@H]2C(=O)N[C@H](Cc2ccc(-c3ccccc3)cc2)C(=O)O)C[C@@H]2CCCC[C@@H]21)N(C)C(=O)[C@@H](CCCNC(=N)N)NC(=O)[C@@H]1CCCN1C(=O)[C@H](CCCCNC(=N)N)NC(=O)[C@H](CCC(N)=O)NC(=O)[C@@H](CCCNC(=N)N)NC(=O)[C@H](CCCCNC(=N)N)NC(=O)COCCOCCNC(=O)COCCOCCNC(=O)CC[C@H](NC(=O)CCCCCCCCCCCCC(=O)O)C(=O)O | 17.8 | – | – | – |
| CCCCCCCCCCCC(=O)N[C@@H](CCC(=O)NCCOCCOCC(=O)NCCOCCOCC(=O)N[C@@H](CCCCNC(=N)N)C(=O)N[C@H](CCCNC(=N)N)C(=O)N[C@@H](CCC(N)=O)C(=O)N[C@@H](CCCCNC(=N)N)C(=O)N1CCC[C@H]1C(=O)N[C@H](CCCNC(=N)N)C(=O)N(C)[C@@H](CC(C)C)C(=O)N[C@@H](CO)C(=O)N[C@@H](Cc1c[nH]cn1)C(=O)N[C@@H](CCCCN)C(=O)NCC(=O)N1[C@H](C(=O)N[C@@H](Cc2ccc(I)cc2)C(=O)N2CCC[C@H]2C(=O)N[C@H](Cc2ccc(-c3ccccc3)cc2)C(=O)O)C[C@@H]2CCCC[C@@H]21)C(=O)O | 3.56 | – | – | 0.0013 |
| CCCCCCCCCCCCCCCC(=O)N[C@@H](CCC(=O)NCCOCCOCC(=O)NCCOCCOCC(=O)N[C@@H](CCCCNC(=N)N)C(=O)N[C@H](CCCNC(=N)N)C(=O)N[C@@H](CCC(N)=O)C(=O)N[C@@H](CCCCNC(=N)N)C(=O)N1CCC[C@H]1C(=O)N[C@H](CCCNC(=N)N)C(=O)N(C)[C@@H](CC(C)C)C(=O)N[C@@H](CO)C(=O)N[C@@H](Cc1c[nH]cn1)C(=O)N[C@@H](CCCCN)C(=O)NCC(=O)N1[C@H](C(=O)N[C@@H](Cc2ccc(I)cc2)C(=O)N2CCC[C@H]2C(=O)N[C@H](Cc2ccc(-c3ccccc3)cc2)C(=O)O)C[C@@H]2CCCC[C@@H]21)C(=O)O | 4.01 | – | – | 0.0189 |
| CC(C)C[C@@H](C(=O)N[C@@H](CO)C(=O)N[C@@H](Cc1c[nH]cn1)C(=O)N[C@@H](CCCCN)C(=O)NCC(=O)N1[C@H](C(=O)N[C@@H](Cc2ccc(I)cc2)C(=O)N2CCC[C@H]2C(=O)N[C@H](Cc2ccc(-c3ccccc3)cc2)C(=O)O)C[C@@H]2CCCC[C@@H]21)N(C)C(=O)[C@@H](CCCNC(=N)N)NC(=O)[C@@H]1CCCN1C(=O)[C@H](CCCCNC(=N)N)NC(=O)[C@H](CCC(N)=O)NC(=O)[C@@H](CCCNC(=N)N)NC(=O)[C@H](CCCCNC(=N)N)NC(=O)COCCOCCNC(=O)COCCOCCNC(=O)CC[C@H](NC(=O)CCCCCCCCC(=O)O)C(=O)O | 2.89 | – | – | – |
| CC(C)C[C@@H](C(=O)N[C@@H](CO)C(=O)N[C@@H](Cc1c[nH]cn1)C(=O)N[C@@H](CCCCN)C(=O)NCC(=O)N1[C@H](C(=O)N[C@@H](Cc2ccc(I)cc2)C(=O)N2CCC[C@H]2C(=O)N[C@H](Cc2ccc(-c3ccccc3)cc2)C(=O)O)C[C@@H]2CCCC[C@@H]21)N(C)C(=O)[C@@H](CCCNC(=N)N)NC(=O)[C@@H]1CCCN1C(=O)[C@H](CCCCNC(=N)N)NC(=O)[C@H](CCC(N)=O)NC(=O)[C@@H](CCCNC(=N)N)NC(=O)[C@H](CCCCNC(=N)N)NC(=O)COCCOCCNC(=O)COCCOCCNC(=O)CC[C@H](NC(=O)CCCCCCCCCCC(=O)O)C(=O)O | 9.34 | – | – | – |
| CCCCCCCCCCCCCC(=O)N[C@@H](CCC(=O)NCCOCCOCC(=O)NCCOCCOCC(=O)N[C@@H](CCCCNC(=N)N)C(=O)N[C@H](CCCNC(=N)N)C(=O)N[C@@H](CCC(N)=O)C(=O)N[C@@H](CCCCNC(=N)N)C(=O)N1CCC[C@H]1C(=O)N[C@H](CCCNC(=N)N)C(=O)N(C)[C@@H](CC(C)C)C(=O)N[C@@H](CO)C(=O)N[C@@H](Cc1c[nH]cn1)C(=O)N[C@@H](CCCCN)C(=O)NCC(=O)N1[C@H](C(=O)N[C@@H](Cc2ccc(I)cc2)C(=O)N2CCC[C@H]2C(=O)N[C@H](Cc2ccc(-c3ccccc3)cc2)C(=O)O)C[C@@H]2CCCC[C@@H]21)C(=O)O | 3.63 | – | – | 0.0023 |
| CC(C)C[C@@H](C(=O)N[C@@H](CO)C(=O)N[C@@H](Cc1c[nH]cn1)C(=O)N[C@@H](CCCCN)C(=O)NCC(=O)N1[C@H](C(=O)N[C@@H](Cc2ccc(I)cc2)C(=O)N2CCC[C@H]2C(=O)N[C@H](Cc2ccc(-c3ccccc3)cc2)C(=O)O)C[C@@H]2CCCC[C@@H]21)N(C)C(=O)[C@@H](CCCNC(=N)N)NC(=O)[C@@H]1CCCN1C(=O)[C@H](CCCCNC(=N)N)NC(=O)[C@H](CCC(N)=O)NC(=O)[C@@H](CCCNC(=N)N)NC(=O)[C@H](CCCCNC(=N)N)NC(=O)COCCOCCNC(=O)COCCOCCNC(=O)CC[C@H](NC(=O)CCCCCCCCCCCCCCC(=O)O)C(=O)O | 56.1 | – | – | – |
| CCCCCCCCCCCCCCCCCC(=O)N[C@@H](CCC(=O)NCCOCCOCC(=O)NCCOCCOCC(=O)N[C@@H](CCCCNC(=N)N)C(=O)N[C@H](CCCNC(=N)N)C(=O)N[C@@H](CCC(N)=O)C(=O)N[C@@H](CCCCNC(=N)N)C(=O)N1CCC[C@H]1C(=O)N[C@H](CCCNC(=N)N)C(=O)N(C)[C@@H](CC(C)C)C(=O)N[C@@H](CO)C(=O)N[C@@H](Cc1c[nH]cn1)C(=O)N[C@@H](CCCCN)C(=O)NCC(=O)N1[C@H](C(=O)N[C@@H](Cc2ccc(I)cc2)C(=O)N2CCC[C@H]2C(=O)N[C@H](Cc2ccc(-c3ccccc3)cc2)C(=O)O)C[C@@H]2CCCC[C@@H]21)C(=O)O | 3.78 | – | – | – |

The remaining lines, values ahead:

| EC50 [1] [nM] | remaining at 4 h [2] [%] | remaining at 4 h [3] [%] | fraction unbound [4] | Compound |
| --- | --- | --- | --- | --- |
| 1.35 | – | – | – | CCCCCCCCCC(=O)N[C@@H](CCC(=O)NCCOCCOCC(=O)NCCOCCOCC(=O)N[C@@H](CCCCNC(=N)N)C(=O)N[C@H](CCCNC(=N)N)C(=O)N[C@@H](CCC(N)=O)C(=O)N[C@@H](CCCCNC(=N)N)C(=O)N1CCC[C@H]1C(=O)N[C@H](CCCNC(=N)N)C(=O)N(C)[C@@H](CC(C)C)C(=O)N[C@@H](CO)C(=O)N[C@@H](Cc1c[nH]cn1)C(=O)N[C@@H](CCCCN)C(=O)NCC(=O)N1[C@H](C(=O)N[C@@H](Cc2ccc(I)cc2)C(=O)N2CCC[C@H]2C(=O)N[C@H](Cc2ccc(-c3ccccc3)cc2)C(=O)O)C[C@@H]2CCCC[C@@H]21)C(=O)O |
| 0.92 | 30 | > 90 | 0.001 | CC(=O)N[C@@H](CCC(=O)NCCOCCOCC(=O)NCCOCCOCC(=O)N[C@@H](CCCCNC(=N)N)C(=O)N[C@H](CCCNC(=N)N)C(=O)N[C@@H](CCC(N)=O)C(=O)N[C@@H](CCCCNC(=N)N)C(=O)N1CCC[C@H]1C(=O)N[C@H](CCCNC(=N)N)C(=O)N(C)[C@@H](CC(C)C)C(=O)N[C@@H](CO)C(=O)N[C@@H](Cc1c[nH]cn1)C(=O)N[C@@H](CCCCN)C(=O)NCC(=O)N1[C@H](C(=O)N[C@@H](Cc2ccc(I)cc2)C(=O)N2CCC[C@H]2C(=O)N[C@H](Cc2ccc(-c3ccccc3)cc2)C(=O)O)C[C@@H]2CCCC[C@@H]21)C(=O)O |
| 0.24 | – | – | – | CCCC(=O)N[C@@H](CCC(=O)NCCOCCOCC(=O)NCCOCCOCC(=O)N[C@@H](CCCCNC(=N)N)C(=O)N[C@H](CCCNC(=N)N)C(=O)N[C@@H](CCC(N)=O)C(=O)N[C@@H](CCCCNC(=N)N)C(=O)N1CCC[C@H]1C(=O)N[C@H](CCCNC(=N)N)C(=O)N(C)[C@@H](CC(C)C)C(=O)N[C@@H](CO)C(=O)N[C@@H](Cc1c[nH]cn1)C(=O)N[C@@H](CCCCN)C(=O)NCC(=O)N1[C@H](C(=O)N[C@@H](Cc2ccc(I)cc2)C(=O)N2CCC[C@H]2C(=O)N[C@H](Cc2ccc(-c3ccccc3)cc2)C(=O)O)C[C@@H]2CCCC[C@@H]21)C(=O)O |
| 2.61 | – | – | – | CC(C)C[C@@H](C(=O)N[C@@H](CO)C(=O)N[C@@H](Cc1c[nH]cn1)C(=O)N[C@@H](CCCCN)C(=O)NCC(=O)N1[C@H](C(=O)N[C@@H](Cc2ccc(I)cc2)C(=O)N2CCC[C@H]2C(=O)N[C@H](Cc2ccc(-c3ccccc3)cc2)C(=O)O)C[C@@H]2CCCC[C@@H]21)N(C)C(=O)[C@@H](CCCNC(=N)N)NC(=O)[C@@H]1CCCN1C(=O)[C@H](CCCCNC(=N)N)NC(=O)[C@H](CCC(N)=O)NC(=O)[C@@H](CCCNC(=N)N)NC(=O)[C@H](CCCCNC(=N)N)NC(=O)COCCOCCNC(=O)COCCOCCNC(=O)CC[C@H](NC(=O)CCCCCCC(=O)O)C(=O)O |
| 0.49 | – | – | – | CC(C)C[C@@H](C(=O)N[C@@H](CO)C(=O)N[C@@H](Cc1c[nH]cn1)C(=O)N[C@@H](CCCCN)C(=O)NCC(=O)N1[C@H](C(=O)N[C@@H](Cc2ccc(I)cc2)C(=O)N2CCC[C@H]2C(=O)N[C@H](Cc2ccc(-c3ccccc3)cc2)C(=O)O)C[C@@H]2CCCC[C@@H]21)N(C)C(=O)[C@@H](CCCNC(=N)N)NC(=O)[C@@H]1CCCN1C(=O)[C@H](CCCCNC(=N)N)NC(=O)[C@H](CCC(N)=O)NC(=O)[C@@H](CCCNC(=N)N)NC(=O)[C@H](CCCCNC(=N)N)NC(=O)COCCOCCNC(=O)COCCOCCNC(=O)CC[C@H](NC(=O)CCC(=O)O)C(=O)O |
| 3.05 | – | – | 0.0027 | CCCCCCCC(=O)N[C@@H](CCC(=O)NCCOCCOCC(=O)NCCOCCOCC(=O)N[C@@H](CCCCNC(=N)N)C(=O)N[C@H](CCCNC(=N)N)C(=O)N[C@@H](CCC(N)=O)C(=O)N[C@@H](CCCCNC(=N)N)C(=O)N1CCC[C@H]1C(=O)N[C@H](CCCNC(=N)N)C(=O)N(C)[C@@H](CC(C)C)C(=O)N[C@@H](CO)C(=O)N[C@@H](Cc1c[nH]cn1)C(=O)N[C@@H](CCCCN)C(=O)NCC(=O)N1[C@H](C(=O)N[C@@H](Cc2ccc(I)cc2)C(=O)N2CCC[C@H]2C(=O)N[C@H](Cc2ccc(-c3ccccc3)cc2)C(=O)O)C[C@@H]2CCCC[C@@H]21)C(=O)O |
